# US20240132485A1, “HETEROCYCLIC CULLIN RING UBIQUITIN LIGASE COMPOUNDS AND USES THEREOF” (CEMM - FORSCHUNGSZENTRUM FÜR MOLEKULARE MEDIZIN GMBH, priority 2020, published 2024)
# Key:
# KBM7 cells (wild-type) = test: KBM7 CTG EC50 assay (UBE2M wild-type); type: cell-based, human; settings: for EC50: Homo sapiens, KBM-7, 72 h incubation, CellTiter-Glo, read-out: KBM7 CTG EC50 (UBE2M wild-type) Activity Class; for Ratio UBE2M WT to KO: ratio of anti-proliferative activity in KBM7 wild-type versus UBE2M knock-out cells (fold)
# From the text: (§1) This is a cell viability assay to measure the desired therapeutic effect, i.e. killing of cancer cells. The UBE2M mutant cell line has impaired activity of the Cullin-RING ligase system due to a hypomorphic mutation in UBE2M, which is required for activation of these E3 ligases. By comparison with WT cells, it is possible to estimate the contribution of Cyclin K degradation (which is reduced in UBE2M mut cells) compared to kinase inhibition of CDK12 (which is unaffected in UBE2M mut cells). Since the UBE2M mutation only reduces CRL function without fully abrogating it, this assay may slightly underestimate the effect of degradation because, at high compound concentrations, degradation may still be observed.
# (§2) KBM7 cells (wild-type or harboring α hypomorphic UBE2M mutation (Mayor-Ruiz et al., 2019)) were seeded in a white opaque 384-well plate at a density of 1000 cells per well in duplicate, in full medium (IMDM+10% FBS+1% penicillin-streptomycin). Cells were treated with compounds in a 10-point titration with a dilution factor of 1:4 (range: 0 to 20 μM). After 72 h of incubation, the cell viability was determined using the CellTiter-Glo® 2.0 reactant (Promega), pre-diluted 1:4 in mQ water. The luminescence signal was measured using the multimode plate reader EnVision 2105 (Perkin Elmer).
# [1] = test system: KBM7 cells harboring a hypomorphic UBE2M mutation; test: KBM7 CTG EC50 assay (UBE2M knock-out); type: cell-based; settings: Homo sapiens, KBM-7; 72 h incubation, CellTiter-Glo; read-out: KBM7 CTG EC50 (UBE2M knock-out) Activity Class
# From the text: as §1, §2
# CCNK = test: NanoLuc-CCNK degradation assay (HEK293T_Nluc_CCNK-tagged cells); type: cell-based; settings: 4 h incubation, HEK293T_Nluc_CCNK-tagged cells; for DC50: read-out: NanoLuc-CCNK degradation DC50 Activity Class
# Description: The assay helps to elucidate the mechanistic explanation of the cell killing effect of the compounds of the present invention. Cyclin K is fused to a nanoluciferase, light emission is measured as a proxy of Cyclin K abundance. Potency of Cyclin K degradation and cytotoxicity of KBM7 correlate extremely well, further supporting Cyclin K degradation being the main driver of the cell killing, as opposed to inhibition of CDK12 catalytic activity.
# HEK293T_Nluc_CCNK-tagged cells were engineered by integrating a nanoluciferase tag at the N-terminus of the endogenous locus of CCNK using CRISPR-Cas9 technology. Briefly, 5.5 million HEK293T cells were co-transfected by PEI with a 1:1 ratio of cutting vector (sgRNA: […]) and repair template (4 μg total plasmid) as previously described (Brand and Winter, 2019). The repair sequence comprises a cassette of puromycinR-P2A-HA-Nluc-(G4S)3 (P2A: self-cleaving peptide 2A, HA: HA-tag, (G4S)3: flexible linker), surrounded by 20-nucleotide microhomologies matching the genomic locus. After 3 days of incubation, the recombinant population was selected by puromycin treatment (2 μg/ml, 5-day treatment). A monoclonal population was obtained by limiting dilution and cassette integration validated by Sanger sequencing.
# HEK293T_Nluc_CCNK-tagged cells were seeded in a white opaque 384-well plate at a density of 8000 cells per well in duplicate, in full medium (Opti-MEM I+4% FBS+1% PS). Cells were treated with compounds in a 10-point titration (range: 0 to 10 μM, 1:4 dilution). After 4 h of incubation, Nano-Glo substrate (Promega), pre-diluted in serum-free medium (Opti-MEM I), was added to the cells (1:500 final dilution). The luminescence signal was directly measured using the multimode plate reader EnVision 2105 (Perkin Elmer).
# [2] = target: T1, DDB1-CDK12/Cyclin K ternary complex (Homo sapiens, UniProt Q16531+Q9NYV4); test: NanoBRET fold-change assay (HaloTag_CDK12 / NanoLuc_DDB1 in HEK293T); type: cell-based; settings: 10 μM compound, 10 minutes
# T1 construct: expressed in transfected cells; host or cells: HEK293T wildtype cells, transient PEI transfection
# Description: This assay measures the interaction/recruitment of CDK12/Cyclin K to DDB1, mechanistically validating the molecular glue pharmacology.
# HEK293T wildtype cells are seeded 800 k cells/well (DMEM+10% FBS+1% PS) in a 6-well plate and allowed to attach for ˜7 hours followed by a transient transfection of 1.5 μg HaloTag_CDK12 Plasmid [Table 1] and 0.15 μg NanoLuc_DDB1 plasmid [Table 1] per well using PEI. Cells are incubated at 37° C., 5% CO2, harvested after 24 hours and resuspended in assay media (Opti-MEM Reduced serum media, no phenol red, 4% FBS, 1% PS). Cells are adjusted to 2.3×10^5 cells/ml and treated with HaloTag 618 Ligand at 100 nM or DMSO. 8000 cells are seeded per well in triplicates per compound in a white-walled 384-well plate, one negative control treated with DMSO instead of HaloTag 618 Ligand is seeded in triplicates and the 384-well plate is incubated at 37° C., 5% CO2 overnight. Compound stock solutions are prepared in Opti-MEM−/− (Opti-MEM I Reduced serum media, no phenol red) at 8× and used to treat the cells at a final concentration of 1× at 10 μM. Cells and compounds are incubated for 10 minutes at room temperature followed by addition of NanoBRET Nano-Glo substrate following manufacturer's protocols. The plate is shaken for 30 sec followed by immediate measurement of donor emission (NanoBRET Blue at 460 nm) and acceptor emission (BRET Deep Red at 647 nm) for 0.5 s.
# T1 sequence (Q9NYV4 whole entry): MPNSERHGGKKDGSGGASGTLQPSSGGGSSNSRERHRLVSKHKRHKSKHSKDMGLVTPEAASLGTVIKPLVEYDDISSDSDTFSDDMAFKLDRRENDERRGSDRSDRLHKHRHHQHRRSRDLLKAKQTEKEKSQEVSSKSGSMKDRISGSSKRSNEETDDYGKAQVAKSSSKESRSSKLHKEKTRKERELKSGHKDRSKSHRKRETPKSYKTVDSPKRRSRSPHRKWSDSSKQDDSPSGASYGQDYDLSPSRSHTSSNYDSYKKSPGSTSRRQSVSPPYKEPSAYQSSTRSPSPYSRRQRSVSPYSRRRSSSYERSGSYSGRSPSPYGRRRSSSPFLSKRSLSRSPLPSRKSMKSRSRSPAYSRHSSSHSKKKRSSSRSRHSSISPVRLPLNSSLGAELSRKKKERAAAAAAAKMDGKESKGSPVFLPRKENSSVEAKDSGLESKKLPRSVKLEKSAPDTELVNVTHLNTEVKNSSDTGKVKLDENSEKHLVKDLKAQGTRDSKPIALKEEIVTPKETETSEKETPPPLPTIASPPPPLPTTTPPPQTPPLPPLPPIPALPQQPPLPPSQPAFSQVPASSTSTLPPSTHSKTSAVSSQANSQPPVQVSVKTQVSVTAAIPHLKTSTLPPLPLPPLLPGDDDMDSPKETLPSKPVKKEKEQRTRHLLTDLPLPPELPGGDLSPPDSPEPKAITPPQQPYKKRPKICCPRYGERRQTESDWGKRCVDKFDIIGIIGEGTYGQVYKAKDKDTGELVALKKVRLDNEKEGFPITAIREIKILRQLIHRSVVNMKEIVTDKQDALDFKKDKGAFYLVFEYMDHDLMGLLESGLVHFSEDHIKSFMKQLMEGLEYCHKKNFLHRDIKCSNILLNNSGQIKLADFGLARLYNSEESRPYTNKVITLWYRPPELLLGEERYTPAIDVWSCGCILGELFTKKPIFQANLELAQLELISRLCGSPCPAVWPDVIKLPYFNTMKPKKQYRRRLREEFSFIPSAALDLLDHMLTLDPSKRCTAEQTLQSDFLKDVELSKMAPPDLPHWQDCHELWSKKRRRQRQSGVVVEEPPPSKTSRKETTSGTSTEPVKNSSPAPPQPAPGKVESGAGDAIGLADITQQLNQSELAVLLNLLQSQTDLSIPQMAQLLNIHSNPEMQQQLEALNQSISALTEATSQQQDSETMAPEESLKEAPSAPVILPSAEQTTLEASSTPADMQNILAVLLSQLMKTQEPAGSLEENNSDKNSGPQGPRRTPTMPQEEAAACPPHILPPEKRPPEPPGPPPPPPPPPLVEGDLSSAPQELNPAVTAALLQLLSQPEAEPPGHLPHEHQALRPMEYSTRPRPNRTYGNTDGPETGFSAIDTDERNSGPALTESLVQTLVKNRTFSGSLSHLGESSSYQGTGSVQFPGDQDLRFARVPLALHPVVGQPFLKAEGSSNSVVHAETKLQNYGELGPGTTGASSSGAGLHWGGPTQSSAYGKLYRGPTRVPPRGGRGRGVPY
# T1 sequence (Q16531 whole entry): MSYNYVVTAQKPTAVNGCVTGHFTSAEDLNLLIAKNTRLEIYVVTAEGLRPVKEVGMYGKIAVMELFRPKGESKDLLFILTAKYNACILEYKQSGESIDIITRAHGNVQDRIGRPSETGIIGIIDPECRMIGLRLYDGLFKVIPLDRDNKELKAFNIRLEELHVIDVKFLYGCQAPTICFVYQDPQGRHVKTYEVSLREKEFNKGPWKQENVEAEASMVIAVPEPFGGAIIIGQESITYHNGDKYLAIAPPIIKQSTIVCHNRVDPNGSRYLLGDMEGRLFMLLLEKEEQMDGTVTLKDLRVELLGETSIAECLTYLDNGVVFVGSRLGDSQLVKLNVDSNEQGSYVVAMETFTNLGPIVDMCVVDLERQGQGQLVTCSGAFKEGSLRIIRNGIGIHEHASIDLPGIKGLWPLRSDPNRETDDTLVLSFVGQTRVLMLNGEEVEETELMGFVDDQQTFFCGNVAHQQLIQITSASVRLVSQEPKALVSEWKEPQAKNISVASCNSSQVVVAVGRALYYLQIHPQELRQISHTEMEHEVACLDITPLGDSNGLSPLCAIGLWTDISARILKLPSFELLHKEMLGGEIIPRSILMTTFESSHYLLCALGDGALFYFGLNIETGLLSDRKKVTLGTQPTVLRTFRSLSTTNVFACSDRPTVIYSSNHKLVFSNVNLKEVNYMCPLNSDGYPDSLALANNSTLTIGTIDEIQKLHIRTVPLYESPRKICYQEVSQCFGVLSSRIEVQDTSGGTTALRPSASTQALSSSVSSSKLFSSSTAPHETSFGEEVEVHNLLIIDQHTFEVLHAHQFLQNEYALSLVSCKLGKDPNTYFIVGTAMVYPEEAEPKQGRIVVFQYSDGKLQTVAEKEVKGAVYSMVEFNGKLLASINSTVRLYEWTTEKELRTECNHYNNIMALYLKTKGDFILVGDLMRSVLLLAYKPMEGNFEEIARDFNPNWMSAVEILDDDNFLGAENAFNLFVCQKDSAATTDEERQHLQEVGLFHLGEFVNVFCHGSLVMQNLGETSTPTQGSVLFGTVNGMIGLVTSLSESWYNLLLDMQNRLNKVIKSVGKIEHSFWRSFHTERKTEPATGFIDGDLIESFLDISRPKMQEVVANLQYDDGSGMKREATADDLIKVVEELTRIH
# T1 sequence (O75909 whole entry partner): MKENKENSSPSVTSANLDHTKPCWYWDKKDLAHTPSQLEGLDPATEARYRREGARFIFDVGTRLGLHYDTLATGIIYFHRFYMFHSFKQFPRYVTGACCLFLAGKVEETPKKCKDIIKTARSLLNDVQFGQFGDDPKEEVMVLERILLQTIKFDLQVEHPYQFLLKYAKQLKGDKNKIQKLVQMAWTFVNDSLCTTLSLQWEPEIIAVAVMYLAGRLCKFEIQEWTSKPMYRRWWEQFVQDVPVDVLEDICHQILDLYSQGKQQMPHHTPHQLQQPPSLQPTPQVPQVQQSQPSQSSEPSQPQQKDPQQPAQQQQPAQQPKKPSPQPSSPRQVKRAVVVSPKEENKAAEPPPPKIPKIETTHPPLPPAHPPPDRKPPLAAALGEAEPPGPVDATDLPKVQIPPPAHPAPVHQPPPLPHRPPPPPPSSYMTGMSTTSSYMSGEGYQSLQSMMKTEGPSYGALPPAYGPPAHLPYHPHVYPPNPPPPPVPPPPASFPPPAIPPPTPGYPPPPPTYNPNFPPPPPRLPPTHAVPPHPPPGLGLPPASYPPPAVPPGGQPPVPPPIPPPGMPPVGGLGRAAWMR
Compound,DC50 (CCNK) [µM],NanoBRET fold-change Activity Class [2],NanoLuc-CCNK degradation DC50 Activity Class (CCNK),EC50 (KBM7 cells (wild-type)) [µM],Ratio UBE2M WT to KO (KBM7 cells (wild-type)),EC50 [1] [µM]
"O=C(Nc1ncc(C(F)(F)F)s1)C1CC(=O)N(c2ccccc2Cl)C1 (stereo not shown) [Example 3-20, 1-(2-chlorophenyl)-5-oxo-N-(5-(trifluoromethyl)thiazol-2-yl)pyrrolidine-3-carboxamide]",> 10,C (2-3 fold increase),,0.25 to 0.5,>10,> 10
"O=C(Cc1cccc2ncccc12)Nc1ncc(C(F)(F)F)s1 [Example 3-13, 2-(quinolin-5-yl)-N-(5-(trifluoromethyl)thiazol-2-yl)acetamide]",> 10,B (3-4 fold increase),,1 to 10,>4,> 10
"O=C(Cc1cn2cc(Cl)cc(Cl)c2n1)Nc1ncc(C(F)(F)F)s1 [Example 3-8, 2-(6,8-dichloroimidazo[1,2-a]pyridin-2-yl)-N-(5-(trifluoromethyl)thiazol-2-yl)acetamide]",≤ 0.1,A (greater than 4-fold increase),,≤ 0.25,51.5,≤ 0.25
"Cc1cccn2cc(CC(=O)Nc3ncc(C(F)(F)F)s3)nc12 [Example 3-7, 2-(8-methylimidazo[1,2-a]pyridin-2-yl)-N-(5-(trifluoromethyl)thiazol-2-yl)acetamide]",> 10,B (3-4 fold increase),,≤ 0.25,42.4,1 to 10
"Cc1ccc2c(CC(=O)Nc3ncc(C(C)C)s3)coc2c1C [Example 3-2, 2-(6,7-dimethylbenzofuran-3-yl)-N-(5-isopropylthiazol-2-yl)acetamide]",≤ 0.1,B (3-4 fold increase),,≤ 0.25,12.7,0.5 to 1
"Cc1ccc(N2CC(C(=O)Nc3ncc(C(F)(F)F)s3)CC2=O)cc1 (stereo not shown) [Example 3-16, 5-oxo-1-(p-tolyl)-N-(5-(trifluoromethyl)thiazol-2-yl)pyrrolidine-3-carboxamide]",,C (2-3 fold increase),C (1.0 μM≤DC50<0.50 μM),0.25 to 0.5,>10,> 10
"O=C(Nc1ncc(C(F)(F)F)s1)C1CC(=O)N(c2cc(F)cc(F)c2)C1 (stereo not shown) [Example 3-21, 1-(3,5-difluorophenyl)-5-oxo-N-(5-(trifluoromethyl)thiazol-2-yl)pyrrolidine-3-carboxamide]",,B (3-4 fold increase),B (0.50 μM≤DC50<0.10 μM),≤ 0.25,44.5,1 to 10

# Continued, in another order:
DC50 (CCNK) [µM],NanoBRET fold-change Activity Class [2],NanoLuc-CCNK degradation DC50 Activity Class (CCNK),Compound,EC50 (KBM7 cells (wild-type)) [µM],Ratio UBE2M WT to KO (KBM7 cells (wild-type)),EC50 [1] [µM]
> 10,C (2-3 fold increase),,"O=C(Cc1cn2cc(F)ccc2n1)Nc1cc(Br)[nH]n1 [Example 3-58, N-(5-bromo-1H-pyrazol-3-yl)-2-(6-fluoroimidazo[1,2-a]pyridin-2-yl)acetamide]",≤ 0.25,>10,> 10
,B (3-4 fold increase),B (0.50 μM≤DC50<0.10 μM),"O=C(CCn1cnc2ccc(Br)cc2c1=O)Nc1ncc(C(F)(F)F)s1 [Example 3-65, 3-(6-bromo-4-oxoquinazolin-3(4H)-yl)-N-(5-(trifluoromethyl)thiazol-2-yl)propanamide]",0.5 to 1,>13,> 10
≤ 0.1,B (3-4 fold increase),,"O=C(Nc1ncc(C(F)(F)F)s1)C1CC(=O)N(Cc2ccccc2)C1 (stereo not shown) [Example 3-27, 1-benzyl-5-oxo-N-(5-(trifluoromethyl)thiazol-2-yl)pyrrolidine-3-carboxamide]",≤ 0.25,>10,> 10
> 10,C (2-3 fold increase),,"Cc1ccc2c(CC(=O)Nc3ccc(C(F)(F)F)cn3)coc2c1C [Example 3-54, 2-(6,7-dimethylbenzofuran-3-yl)-N-(5-(trifluoromethyl)pyridin-2-yl)acetamide]",≤ 0.25,24.7,1 to 10
> 10,A (greater than 4-fold increase),,"O=C(Cc1cccc2ccncc12)Nc1ncc(C(F)(F)F)s1 [Example 3-33, 2-(isoquinolin-8-yl)-N-(5-(trifluoromethyl)thiazol-2-yl)acetamide]",≤ 0.25,64.7,1 to 10
> 10,C (2-3 fold increase),,"Cc1cc(NC(=O)Cc2cn3cc(F)ccc3n2)n[nH]1 [Example 3-56, 2-(6-fluoroimidazo[1,2-a]pyridin-2-yl)-N-(5-methyl-1H-pyrazol-3-yl)acetamide]",0.25 to 0.5,>10,> 10
> 10,C (2-3 fold increase),,"O=C(Cc1cccc2cnccc12)Nc1ncc(C(F)(F)F)s1 [Example 3-30, 2-(isoquinolin-5-yl)-N-(5-(trifluoromethyl)thiazol-2-yl)acetamide]",> 10,>1,> 10
,B (3-4 fold increase),D (10 μM≤DC50<1.0 μM),"Cc1ccc2c(CC(=O)Nc3cc(C4CC4)[nH]n3)coc2c1C [Example 3-46, N-(5-cyclopropyl-1H-pyrazol-3-yl)-2-(6,7-dimethylbenzofuran-3-yl)acetamide]",0.5 to 1,>10,> 10
> 10,C (2-3 fold increase),,"Cc1ccc2c(ccn2CC(=O)Nc2ncc(C(F)(F)F)s2)c1 [Example 3-37, 2-(5-methyl-1H-indol-1-yl)-N-(5-(trifluoromethyl)thiazol-2-yl)acetamide]",1 to 10,>4,> 10
,B (3-4 fold increase),B (0.50 μM≤DC50<0.10 μM),"CC(C)c1cc(NC(=O)Cc2cn3cc(F)ccc3n2)n[nH]1 [Example 3-57, 2-(6-fluoroimidazo[1,2-a]pyridin-2-yl)-N-(5-isopropyl-1H-pyrazol-3-yl)acetamide]",≤ 0.25,146.3,1 to 10
